The source of these data is patent US20090105349A1, “ANDROGEN MODULATORS” (WARNER-LAMBERT COMPANY LLC, priority 2004, published 2009).

As a reminder, the IC50 is the concentration that gives 50% inhibition.

Substitutions are numbered along the chain they refer to. Read-outs that look alike come from different tables or passages of the source.

Assay [1] addresses T1, androgen receptor in MDA-MB453-MMTV clone 54-19 cells (Homo sapiens, UniProt P10275).
T1 sequence (P10275 1-920 Q868H): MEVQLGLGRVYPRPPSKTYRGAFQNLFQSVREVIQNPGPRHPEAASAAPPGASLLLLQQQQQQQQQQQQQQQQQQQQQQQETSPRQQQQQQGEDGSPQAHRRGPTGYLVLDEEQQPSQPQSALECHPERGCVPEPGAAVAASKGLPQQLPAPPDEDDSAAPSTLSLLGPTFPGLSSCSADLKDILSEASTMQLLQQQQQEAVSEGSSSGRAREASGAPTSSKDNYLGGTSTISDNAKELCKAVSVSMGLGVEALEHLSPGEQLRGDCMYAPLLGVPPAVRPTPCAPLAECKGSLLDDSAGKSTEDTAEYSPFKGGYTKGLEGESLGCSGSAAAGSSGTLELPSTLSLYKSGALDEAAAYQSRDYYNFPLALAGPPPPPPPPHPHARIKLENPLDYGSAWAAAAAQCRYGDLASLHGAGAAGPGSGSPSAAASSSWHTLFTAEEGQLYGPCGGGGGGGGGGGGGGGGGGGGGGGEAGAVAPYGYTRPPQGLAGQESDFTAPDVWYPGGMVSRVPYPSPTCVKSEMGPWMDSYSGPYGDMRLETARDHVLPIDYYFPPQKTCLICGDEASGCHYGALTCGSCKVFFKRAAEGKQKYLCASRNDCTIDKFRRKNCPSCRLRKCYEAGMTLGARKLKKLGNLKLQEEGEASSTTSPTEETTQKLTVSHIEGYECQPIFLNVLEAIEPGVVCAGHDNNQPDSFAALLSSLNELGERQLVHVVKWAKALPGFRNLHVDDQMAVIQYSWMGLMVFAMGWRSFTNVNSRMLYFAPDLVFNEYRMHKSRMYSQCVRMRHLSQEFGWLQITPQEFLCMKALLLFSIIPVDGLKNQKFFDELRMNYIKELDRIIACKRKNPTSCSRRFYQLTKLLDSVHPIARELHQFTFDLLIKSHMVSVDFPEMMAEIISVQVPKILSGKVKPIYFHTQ
Kind of assay: AR antagonist cell assay (MMTV-luciferase reporter). Type of assay: cell-based. On the technique in general: In a reporter assay the amount or activity of a reporter protein is the signal.

The test system of assay [2] is male C3H/HeN mice (telogen to anagen conversion). Type of assay: in vivo. An excerpt:
While this model is a significant improvement over the telogen conversion assay as a model for human baldness, it suffers from a number of practical disadvantages. The macaques are expensive, relatively rare, labor intensive to maintain, and require long wash out periods between testing. […] Thus, the model relates to a modification of the existing telogen conversion assay. Male C3H/HeN mice approximately 7 weeks old are utilized. These animals are also uniformly in telogen, like their female counterparts. However, once shaven, the androgens inherently present in these male mice inhibit the conversion of the hair follicles to the anagen phase. An anti-androgen will block this androgenic effect and the follicles will convert to anagen, like their female counterparts.
The compounds shown below in Table IV were submitted for further testing utilizing the modified telogen conversion assay, described above. The testing was carried out in the following manner.
Male C3H/HeN mice, 6 to 7 weeks old (Charles River Laboratories, Raleigh, N.C.) were used for the study. Fur was clipped from the dorsal region of the mice prior to initiation of the study. Only mice with pink skin, a visual indication of the telogen phase, were selected for inclusion in the study.
A second group of animals received only the vehicle to serve as a control. Treatments were applied twice daily for 4 weeks.
The hair growth response was quantified by recording, for each animal, the day on which signs of hair growth first appeared over the treated area. The first sign of anagen was the darkening of skin color as melanocytes in the follicles started to synthesize melanin in preparation for the production of pigmented hairs. […] The day on which anagen was initiated in 50% of the test animals for both the treatment group and the vehicle group is reported below in Table IV.

Assay [3] deals with T2, hAR (human androgen receptor) (Homo sapiens, UniProt P10275).
T2 construct: made in house; host or cells: baculovirus/Sf9 insect cells (crude extract)
T2 sequence (P10275 1-920): T1 sequence (P10275 1-920 Q868H) with H868Q
Put plainly: Competitive hAR binding assay with 3H-DHT tracer.

Where [4] appears, read: MDA-MB453-MMTV clone 54-19, inhibition of DHT induced luciferase, 17 hr; mean of multiple tests; read-out: AR Cell IC50.
[5] abbreviates: baculovirus/Sf9 hAR extract, 1 nM 3H-DHT, one hour at 4° C, mean of multiple tests, read-out: AR Binding IC50.
Where [6] appears, read: read-out: AR Cell IC50; MDA-MB453-MMTV clone 54-19, inhibition of DHT induced luciferase, 17 hr; mean of multiple tests.

On to `N#Cc1ccc(Oc2ccccc2F)c(Cl)c1` [Example 27, 3-Chloro-4-(2-fluoro-phenoxy)-benzonitrile], for which, in assay [1] (setting [4]), the IC50 is 46 nM. Further, the “Anagen-Trx (day on which anagen was initiated in 50% of the test animals)” value in assay [2] (1 % w/v, Vehicle #2, topical twice daily for 4 weeks) is more than 35 days.
For the molecule `COc1cc(F)ccc1Oc1ccc(C#N)cc1Cl` [Example 29, 3-Chloro-4-(4-fluoro-2-methoxy-phenoxy)-benzonitrile], the results for the IC50 in assay [3] (setting [5]) and in assay [1] (setting [6]) were 135 nM and 67 nM, respectively. For the same molecule, the “Anagen-Trx (day on which anagen was initiated in 50% of the test animals)” value in assay [2] (mouse, in vivo) was 25 days.
On to `N#Cc1ccc(Oc2cccc(O)c2)cc1C(F)(F)F` [Example 82, 4-(3-Hydroxy-phenoxy)-2-trifluoromethyl-benzonitrile], for which the IC50 turned out to be 85 nM in assay [3] and 61 nM in assay [1] (setting [6]).
In the case of `CC(=O)c1c(O)cccc1Oc1ccc(C#N)c(C(F)(F)F)c1` [Example 85, 4-(2-Acetyl-3-hydroxy-phenoxy)-2-trifluoromethyl-benzonitrile], the IC50 was 111 nM in assay [3] (setting [5]) and 4 nM in assay [1] (setting [6]).
With `CC(=O)c1ccccc1Oc1ccc(C#N)c(C(F)(F)F)c1` [Example 88, 4-(2-Acetyl-phenoxy)-2-trifluoromethyl-benzonitrile], the IC50 is 276 nM in assay [3] (setting [5]) and 123 nM in assay [1] (setting [4]).
Consider `COc1ccc(Oc2ccc(C#N)c(C(F)(F)F)c2)c(C(C)=O)c1` [Example 90, 4-(2-Acetyl-4-methoxy-phenoxy)-2-trifluoromethyl-benzonitrile], for which the IC50 came to 204 nM in assay [3] (setting [5]) and 477 nM in assay [1] (setting [4]).
Consider `N#Cc1ccc(Oc2cccc3ccccc23)cc1C(F)(F)F` [Example 97, 4-(Naphthalen-1-yloxy)-2-trifluoromethyl-benzonitrile], for which the IC50 was found to be 100 nM in assay [3] and 554 nM in assay [1] (setting [4]).
For the molecule `Cc1ccc(Oc2ccc(C#N)c(C(F)(F)F)c2)c(C)c1` [Example 99, 4-(2,4-Dimethyl-phenoxy)-2-trifluoromethyl-benzonitrile], the figures for the IC50 in assay [3] and in assay [1] (setting [4]) were 46 nM and 899 nM, respectively.
As to `N#Cc1ccc(Oc2ccc(C#N)c(C(F)(F)F)c2)cc1C#N` [Example 100, 4-(4-Cyano-3-trifluoromethyl-phenoxy)-phthalonitrile], the figures for the IC50 in assay [3] (setting [5]) and in assay [1] (setting [4]) were 173 nM and 822 nM, respectively.
In the same order, the values of `N#Cc1ccc(Oc2ccccc2C2CCCC2)cc1C(F)(F)F` [Example 104, 4-(2-Cyclopentyl-phenoxy)-2-trifluoromethyl-benzonitrile] are 228 nM and 592 nM.
`C=CCc1ccccc1Oc1ccc(C#N)c(C(F)(F)F)c1` [Example 105, 4-(2-Allyl-phenoxy)-2-trifluoromethyl-benzonitrile]: the IC50 is 82 nM in assay [3] and more than 1000 nM in assay [1] (setting [4]).
Consider `CCN(CC)C(=O)c1ccccc1Oc1ccc(C#N)c(C(F)(F)F)c1` [Example 106, 2-(4-Cyano-3-trifluoromethyl-phenoxy)-N,N-diethyl-benzamide], for which the 50% inhibitory concentration (IC50) was 175 nM in assay [3] (setting [5]) and more than 1000 nM in assay [1] (setting [4]).
Take `N#Cc1ccc(Oc2ccccc2C(F)(F)F)cc1C(F)(F)F` [Example 108, 2-Trifluoromethyl-4-(2-trifluoromethyl-phenoxy)-benzonitrile]: the results for the IC50 in assay [3] and in assay [1] (setting [4]) were 57 nM and more than 1000 nM, respectively.
Turning to `CC(C)Oc1ccccc1Oc1ccc(C#N)c(C(F)(F)F)c1` [Example 110, 4-(2-Isopropoxy-phenoxy)-2-trifluoromethyl-benzonitrile], the IC50 in assay [3] (setting [5]) stood at 218 nM; in assay [1] (setting [4]) it was 206 nM.
As for `N#Cc1ccc(Oc2ccc(F)cc2F)cc1C(F)(F)F` [Example 115, 4-(2,4-Difluoro-phenoxy)-2-trifluoromethyl-benzonitrile], the IC50 in assay [3] was 128 nM; in assay [1] (setting [6]) it was 56 nM.
In the same order, the values of `COc1c(O)cccc1Oc1ccc(C#N)c(C(F)(F)F)c1` [Example 116, 4-(3-Hydroxy-2-methoxy-phenoxy)-2-trifluoromethyl-benzonitrile] are 30 nM and 3 nM.
Turning to `COc1cc(Oc2ccccc2C)ccc1C#N` [Example 117, 2-Methoxy-4-o-tolyloxy-benzonitrile], the IC50 in assay [3] (setting [5]) is 53 nM; in assay [1] (setting [4]), 26 nM.
On to `Cc1ccc(F)c(Oc2ccc(C#N)c(C(F)(F)F)c2)c1F` [Example 118, 4-(2,6-Difluoro-3-methyl-phenoxy)-2-trifluoromethyl-benzonitrile], for which the values for the IC50 in assay [3] and in assay [1] (setting [4]) were 76 nM and 249 nM, respectively.
Take `CC(O)c1cc(F)ccc1Oc1ccc(C#N)c(C(F)(F)F)c1` (stereo not shown) [Example 119, 4-[4-Fluoro-2-(1-hydroxy-ethyl)-phenoxy]-2-trifluoromethyl-benzonitrile]: the IC50 came to 279 nM in assay [3] (setting [5]) and 458 nM in assay [1] (setting [4]).
Regarding `CC(=O)c1cc(F)ccc1Oc1ccc(C#N)c(C(F)(F)F)c1` [Example 120, 4-(2-Acetyl-4-fluoro-phenoxy)-2-trifluoromethyl-benzonitrile], the IC50 in assay [3] (setting [5]) amounted to 222 nM; in assay [1] (setting [4]), 367 nM.
In the case of `N#Cc1ccc(Oc2c(F)cccc2F)cc1C(F)(F)F` [Example 121, 4-(2,6-Difluoro-phenoxy)-2-trifluoromethyl-benzonitrile], the IC50 is 63 nM in assay [3] and 17 nM in assay [1] (setting [6]).
With `N#CCOc1ccccc1Oc1ccc(C#N)c(C(F)(F)F)c1` [Example 123, 4-(2-cyanomethoxy-phenoxy)-2-trifluoromethyl-benzonitrile], the values for the concentration for half-maximal inhibition (IC50) in assay [3] (setting [5]) and in assay [1] (setting [6]) were 141 nM and 54 nM, respectively.
Take `N#Cc1ccc(Oc2c(F)cccc2F)c(Cl)c1` [Example 124, 3-Chloro-4-(2,6-difluoro-phenoxy)-benzonitrile]: the values for the IC50 in assay [3] and in assay [1] (setting [6]) were 45 nM and 60 nM, respectively.
Regarding `COc1cc(C#N)ccc1Oc1ccccc1C` [Example 125, 3-Methoxy-4-o-tolyloxy-benzonitrile], the IC50 was found to be 433 nM in assay [3] (setting [5]) and 50 nM in assay [1] (setting [4]).
